Results on one compound are retold here after the NIST ThermoML archive (doi:10.1016/j.tca.2013.06.032).

Structures are written as SMILES. Numbers after ± are expanded uncertainties.

The conditions of data set [1]: Crystal; DTA.
Data set [2] is described as follows: Molar enthalpy of transition or fusion. The settings on record: Crystal; DSC.

As to `Cc1nc2n(c(=O)c1CCN1CCC(c3noc4cc(F)ccc34)CC1)CCCC2` [risperidone], the Normal melting temperature in data set [1] stood at 170.52 ± 1.1 °C. Further, in data set [2], the “Molar enthalpy of transition or fusion” value came out at 10 ± 0.263 kcal/mol.
